Data set [1] is described as follows: Acute TeaCrine crossover trial: hemodynamics and side effect profiles. It is filed as in vivo, human. How it is done:
Anchored VAS questionnaires were used to detect changes in various aspects of physical and mental energy and performance; side effect profiles, hemodynamics and biochemical markers of safety were also collected over a 3-hr post-dosing period. A subset of 6 subjects underwent a separate 7-day, open-label, repeated dose study comparing 100 mg, 200 mg and 400 mg of TC.
Physical activity levels and health history were determined using standardized questionnaires. Heart rate and blood pressure were measured using an Omron HEM-780. Standing height was determined using a wall-mounted stadiometer. […] Medical Scale. A 100 mm anchored VAS questionnaire for energy, fatigue, and concentration was distributed at each acute lab session; additional VAS questionnaires were distributed for the daily assessment over a 6-hour period during the 7-day subset study. Quest Diagnostics (Pittsburgh, Pa.) was utilized to transport and analyze all blood samples. For each laboratory session, subjects reported to the lab well hydrated, 10-12 hours postprandial, and at least 24-hours after their last exercise session.
Statistical Analyses for Example 1. Descriptive statistics (mean, median, SD, 95% CIs) were used to quantify subjects physical characteristics. […] Effect sizes were also calculated. […]

Data set [2] can be described thus: Theacrine-caffeine interaction study: heart rate, blood pressure, rate pressure product, tolerability. To be noted: at the doses tested, administered alone or in combination. An excerpt:
Study Design and Procedures. […] Theacrine, administered as iTeaCrine.®, was provided by Compound Solutions (Carlsbad, Calif). […] Treatment sequence was randomized using a 4×4 Latin square. There was an approximate 1-week washout period between treatments for all subjects.
Test Visit Procedures. […] A catheter was inserted into the forearm vein for blood sampling. Duplicate measurements of resting heart rate and blood pressure were taken pre-dose and prior to each timed blood sample. In addition, respiratory rate was counted in one minute and body temperature was measured using an ear scanning thermometer (dual readings taken at each time).
Differences between treatment group values were determined for systolic blood pressure (SBP), diastolic blood pressure (DBP), rate pressure product, and heart rate. Parametric data were analyzed by paired Student's t tests of mean differences in values between treatment groups. Statistical significance was defined a priori as a 2-sided or <0.05.

Data set [3] deals with biomarkers of inflammation. The data set can be described thus: Biomarkers of inflammation in humans. The data set is classed as in vivo, human. As to conditions: acute inflammatory stressors or chronic consumption. An excerpt:
Theacrine itself can reduce biomarkers of inflammation in humans in response to acute inflammatory stressors (e.g., intense exercise) or chronic consumption. Theacrine is shown to decrease C-reactive protein (CRP), Erythrocyte sedimentation rate (ESR), interleukin-6 (IL-6) and TNF-alpha.

The subject of the next data set is A1 and A2A AR. To be noted: rats; cited from earlier work.
Data set [4] in a line: 7-day open-label repeated dose study of TC (N=6): VAS subjective measures. It is filed as in vivo, human. As to conditions: 200 mg dose of theacrine over 7 days. As for the experimental part:
A subset of 6 subjects underwent a separate 7-day, open-label, repeated dose study comparing 100 mg, 200 mg and 400 mg of TC. The experiment was a randomized, placebo-controlled, double-blind, within-subject crossover clinical trial (for N=15 study). A further subset study was open-label, sub-acute (7-day), repetitive dosing trial (for N=6 subset). Six (6) subjects provided written and dated informed consent to participate in the 7-day repetitive dosing study between Dec. 15, 2012 and Feb. 21, 2013. A separate cohort of fifteen (15) subjects provided written and dated informed consent for the acute dose, placebo-controlled, crossover clinical trial. All subjects were in good health as determined by physical examination and medical history, between the ages of 18 and 45 (inclusive). […] Subjects were willing and able to comply with the experimental and supplement protocol. Physical activity levels and health history were determined using standardized questionnaires. Heart rate and blood pressure were measured using an Omron HEM-780. Standing height was determined using a wall-mounted stadiometer. […] Medical Scale. A 100 mm anchored VAS questionnaire for energy, fatigue, and concentration was distributed at each acute lab session; additional VAS questionnaires were distributed for the daily assessment over a 6-hour period during the 7-day subset study. Quest Diagnostics (Pittsburgh, Pa.) was utilized to transport and analyze all blood samples.

The nature of data set [5]: Fourteen day study of repetitive dosing of theacrine and caffeine: psychometric indices. The data set is classed as in vivo, human.
Data set [6] in a line: Single dose theacrine, caffeine or combination: subjective feelings on 10 cm visual analog scale. The data set is classed as in vivo, human. How it is done:
Subjects rated their subjective feelings using a 10 cm visual analog scale at 30 minutes, 1, 2, 3, 4, and 5 hours post ingestion and performed the trail making test (TMT) of cognitive performance at baseline and at hours 2 and 4 post ingestion.

The conditions of data set [7]: cited from earlier work.

SMILES strings stand for the structures.

As to `Cn1c(=O)c2c(n(C)c1=O)n(C)c(=O)n2C` [Theacrine, 1,3,7,9-tetramethylpurine-2,6,8-trione], in data set [1] (200 mg dose of TC, 3-hr post-dosing period), the “changes in systemic hemodynamics or side effect profiles” value is “No changes”. In data set [1] (various time intervals after administration), the “systemic hemodynamics: systolic and diastolic blood pressure (FIGS. 4 and 5)” value is reported as “no substantial change”. In addition, in data set [2], the “effect on baseline hemodynamic parameters, e.g. heart rate and blood pressure” value is “no effect”. For the same compound, in data set [3], the “C-reactive protein (CRP)” value is on record as “decrease”, the “Erythrocyte sedimentation rate (ESR)” value is on record as “decrease”, the TNF-alpha entry is on record as “decrease” and the “interleukin-6 (IL-6)” value is reported as “decrease”. The “theacrine stimulating activity under a cocktail containing both A1 and A2A AR antagonists” value with A1 and A2A AR is reported as “blocks”. Besides, in data set [4], the “anxiety (FIG. 6)” value is “decreased substantially”, the “concentration (FIG. 7)” value was “increased substantially”, the “energy (FIG. 7)” value was “increased substantially” and the “fatigue (FIG. 6)” value is reported as “decreased substantially”. Moreover, in data set [4], the “libido (FIG. 6)” value is “increased substantially” and the “motivation to exercise (FIG. 7)” value is “increased substantially”. In data set [5], the anxiety entry is “decreased anxiety”; the “psychometric indices of energy, focus, concentration, motivation and mood” value was “still maintained elevated”. Moreover, the “time post-ingestion at which increase in subjective focus reached statistical significance” value in data set [6] (125 mg theacrine treatment) was 3 h. Besides, the “safety and improvement of subjective feelings related to energy” value in data set [6] (alone at 125 mg or in combination with caffeine) is “safe and effective”. The “sensitization or pharmacodynamic tolerance” value in data set [7] (repeat dose theacrine studies) is on record as “absence of either sensitization or pharmacodynamic tolerance”. The “safety, adverse effects on hemodynamic parameters” value in data set [7] (theacrine supplementation up to 400 mg/day for 8 weeks) was “appears to be safe”.
